Experimental data published in ChEMBL document CHEMBL5523743, “Identification of Psychoplastogenic Tropanes Lacking Muscarinic Activity” (J Med Chem, 2024).
Calls of active or inactive are those of the source. The rule behind the calls is not given here.

What was measured:
Neuron [1] = assay: Neuroplasticity effect in Wistar rat brain cortical neuron assessed as increase in neurite outgrowth at 0.25 to 10 uM after 72 hrs; assay type: functional, cell-based; settings: dose 0.25-10 µM
[2] = target: 5-hydroxytryptamine receptor 2A (Homo sapiens) (UniProt P28223); assay: Agonist activity at recombinant human 5HT2AR expressed in CHO-K1 cells incubated for 60 mins by HTRF method; assay type: functional, cell-based
Sequence of 5-hydroxytryptamine receptor 2A (Homo sapiens) (P28223 whole entry): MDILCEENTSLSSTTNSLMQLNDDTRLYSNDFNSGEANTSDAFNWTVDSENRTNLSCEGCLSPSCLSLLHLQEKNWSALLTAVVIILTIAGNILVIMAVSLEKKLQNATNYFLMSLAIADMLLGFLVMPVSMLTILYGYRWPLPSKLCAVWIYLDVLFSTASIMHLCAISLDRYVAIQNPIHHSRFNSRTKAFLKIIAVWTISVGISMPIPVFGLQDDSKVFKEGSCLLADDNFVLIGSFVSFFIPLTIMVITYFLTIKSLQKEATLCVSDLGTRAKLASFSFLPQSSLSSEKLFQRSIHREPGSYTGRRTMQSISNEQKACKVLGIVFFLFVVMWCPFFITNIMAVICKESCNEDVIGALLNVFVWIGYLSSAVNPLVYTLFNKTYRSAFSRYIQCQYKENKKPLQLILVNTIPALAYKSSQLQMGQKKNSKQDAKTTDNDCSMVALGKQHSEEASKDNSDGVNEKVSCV

[3] = target: T1, Muscarinic acetylcholine receptor M4 (Homo sapiens) (UniProt P08173); assay: Agonist activity at M4 receptor (unknown origin) by GTPgamma[35S] based Topcount scintillation counting method; assay type: functional
T1 sequence (whole entry): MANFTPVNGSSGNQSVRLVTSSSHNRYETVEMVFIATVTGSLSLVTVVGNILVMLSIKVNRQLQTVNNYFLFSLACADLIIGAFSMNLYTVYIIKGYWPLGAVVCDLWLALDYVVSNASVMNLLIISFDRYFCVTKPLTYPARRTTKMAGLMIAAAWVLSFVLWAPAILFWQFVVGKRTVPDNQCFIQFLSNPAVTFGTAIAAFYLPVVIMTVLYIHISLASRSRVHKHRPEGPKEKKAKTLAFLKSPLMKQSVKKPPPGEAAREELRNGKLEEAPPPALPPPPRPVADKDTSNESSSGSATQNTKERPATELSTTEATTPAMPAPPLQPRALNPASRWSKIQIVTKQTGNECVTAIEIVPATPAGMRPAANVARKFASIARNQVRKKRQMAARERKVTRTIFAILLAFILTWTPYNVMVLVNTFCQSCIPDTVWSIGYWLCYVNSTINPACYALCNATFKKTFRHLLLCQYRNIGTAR

[4] = target: T2, Muscarinic acetylcholine receptor M2 (Homo sapiens) (UniProt P08172); assay: Agonist activity at M2 receptor (unknown origin) by GTPgamma[35S] based Topcount scintillation counting method; assay type: functional
T2 sequence (whole entry): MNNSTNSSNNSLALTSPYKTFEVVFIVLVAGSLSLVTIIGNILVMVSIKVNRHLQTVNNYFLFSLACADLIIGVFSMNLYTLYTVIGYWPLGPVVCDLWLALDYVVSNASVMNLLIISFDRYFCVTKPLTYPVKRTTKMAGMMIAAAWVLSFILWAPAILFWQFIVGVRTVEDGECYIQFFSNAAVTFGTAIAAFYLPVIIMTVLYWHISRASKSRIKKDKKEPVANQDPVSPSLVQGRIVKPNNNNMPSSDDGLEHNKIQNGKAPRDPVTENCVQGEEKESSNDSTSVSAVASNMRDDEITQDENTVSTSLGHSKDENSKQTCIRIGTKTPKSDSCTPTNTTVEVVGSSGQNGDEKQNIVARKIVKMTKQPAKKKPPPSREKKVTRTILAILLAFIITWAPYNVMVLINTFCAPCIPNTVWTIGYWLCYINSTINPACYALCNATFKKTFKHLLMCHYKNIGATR

[5] = target: T3, 5-hydroxytryptamine receptor 2C (Homo sapiens) (UniProt P28335); assay: Agonist activity at recombinant human 5HT2CR expressed in CHO-K1 cells incubated for 60 mins by HTRF method; assay type: functional, cell-based
T3 sequence (whole entry): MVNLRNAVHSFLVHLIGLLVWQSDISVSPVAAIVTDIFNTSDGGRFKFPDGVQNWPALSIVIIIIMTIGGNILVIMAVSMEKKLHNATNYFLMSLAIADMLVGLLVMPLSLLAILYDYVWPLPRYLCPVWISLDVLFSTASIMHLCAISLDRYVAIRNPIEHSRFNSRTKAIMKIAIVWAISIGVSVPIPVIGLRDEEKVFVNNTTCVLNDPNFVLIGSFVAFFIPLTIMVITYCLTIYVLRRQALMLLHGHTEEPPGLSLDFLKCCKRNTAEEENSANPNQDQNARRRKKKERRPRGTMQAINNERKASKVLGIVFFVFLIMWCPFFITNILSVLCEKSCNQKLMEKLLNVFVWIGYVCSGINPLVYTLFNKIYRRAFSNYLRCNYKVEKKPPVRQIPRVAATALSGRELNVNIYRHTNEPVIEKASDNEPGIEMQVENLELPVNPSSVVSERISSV

[6] = target: 5-hydroxytryptamine receptor 2A (Homo sapiens) (UniProt P28223); assay: Displacement of [3H]-DOI from 5HT2AR (unknown origin) by Topcount scintillation counting method
[7] = target: T4, Muscarinic acetylcholine receptor M5 (Homo sapiens) (UniProt P08912); assay: Agonist activity at recombinant human M5 receptor expressed in CHO-K1 cells incubated for 15 mins by aequorin assay; assay type: functional, cell-based
T4 sequence (whole entry): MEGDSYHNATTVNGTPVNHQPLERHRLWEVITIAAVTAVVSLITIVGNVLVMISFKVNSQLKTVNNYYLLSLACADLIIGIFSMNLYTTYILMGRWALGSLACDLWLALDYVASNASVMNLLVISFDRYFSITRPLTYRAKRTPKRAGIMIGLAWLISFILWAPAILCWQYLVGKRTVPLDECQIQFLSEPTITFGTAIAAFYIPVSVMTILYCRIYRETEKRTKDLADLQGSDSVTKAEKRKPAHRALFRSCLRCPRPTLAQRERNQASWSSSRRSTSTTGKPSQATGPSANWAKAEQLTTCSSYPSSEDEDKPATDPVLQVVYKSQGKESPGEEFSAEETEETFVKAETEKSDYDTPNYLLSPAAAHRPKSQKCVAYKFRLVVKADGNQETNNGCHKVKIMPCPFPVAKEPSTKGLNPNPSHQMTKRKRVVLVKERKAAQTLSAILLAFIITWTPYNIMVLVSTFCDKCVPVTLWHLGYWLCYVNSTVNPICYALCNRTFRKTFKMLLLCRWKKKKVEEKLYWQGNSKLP

[8] = target: T5, Muscarinic acetylcholine receptor M1 (Homo sapiens) (UniProt P11229); assay: Agonist activity at recombinant human M1 receptor expressed in CHO-K1 cells incubated for 15 mins by aequorin assay; assay type: functional, cell-based
T5 sequence (whole entry): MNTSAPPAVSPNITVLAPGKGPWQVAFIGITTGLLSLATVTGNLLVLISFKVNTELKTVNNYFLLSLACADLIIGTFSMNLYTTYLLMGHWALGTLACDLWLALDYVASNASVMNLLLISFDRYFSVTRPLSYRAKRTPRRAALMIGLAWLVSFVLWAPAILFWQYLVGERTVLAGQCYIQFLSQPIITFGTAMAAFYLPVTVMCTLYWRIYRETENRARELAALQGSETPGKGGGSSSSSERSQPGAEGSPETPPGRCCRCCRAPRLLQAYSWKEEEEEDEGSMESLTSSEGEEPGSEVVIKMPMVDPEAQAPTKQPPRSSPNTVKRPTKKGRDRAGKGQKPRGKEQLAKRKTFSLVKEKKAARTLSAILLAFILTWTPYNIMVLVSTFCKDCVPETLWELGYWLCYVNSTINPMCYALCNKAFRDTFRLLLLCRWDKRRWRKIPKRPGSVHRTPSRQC

[9] = target: T3, 5-hydroxytryptamine receptor 2C (Homo sapiens); assay: Displacement of [3H]-DOI from 5HT2CR (unknown origin) by Topcount scintillation counting method
[10] = target: Muscarinic acetylcholine receptor M3 (Homo sapiens) (UniProt P20309); assay: Agonist activity at recombinant human M3 receptor expressed in CHO-K1 cells incubated for 15 mins by aequorin assay; assay type: functional, cell-based
Sequence of Muscarinic acetylcholine receptor M3 (Homo sapiens) (P20309 whole entry, looked up): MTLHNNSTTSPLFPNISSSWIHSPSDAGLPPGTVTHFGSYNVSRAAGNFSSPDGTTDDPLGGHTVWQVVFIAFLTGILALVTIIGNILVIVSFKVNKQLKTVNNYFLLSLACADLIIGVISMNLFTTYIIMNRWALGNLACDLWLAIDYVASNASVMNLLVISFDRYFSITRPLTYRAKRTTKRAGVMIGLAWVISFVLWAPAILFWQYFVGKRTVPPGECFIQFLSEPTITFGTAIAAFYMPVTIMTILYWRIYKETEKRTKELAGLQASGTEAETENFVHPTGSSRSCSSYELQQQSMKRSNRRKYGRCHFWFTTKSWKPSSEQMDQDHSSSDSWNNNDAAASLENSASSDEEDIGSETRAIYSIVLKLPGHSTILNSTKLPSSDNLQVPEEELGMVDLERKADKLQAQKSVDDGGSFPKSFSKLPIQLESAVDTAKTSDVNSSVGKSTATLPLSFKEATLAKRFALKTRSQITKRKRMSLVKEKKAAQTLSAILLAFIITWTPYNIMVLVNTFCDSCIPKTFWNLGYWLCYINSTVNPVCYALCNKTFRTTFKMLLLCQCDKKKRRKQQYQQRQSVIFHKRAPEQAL

Neuron [11] = assay: Cytotoxicity against Wistar rat brain cortical neurons assessed as decrease in average number of neurites per neuron at 0.25 to 10 uM; assay type: toxicity, cell-based; settings: dose 0.25-10 µM
[12] = target: Muscarinic acetylcholine receptor M3 (Homo sapiens) (UniProt P20309); assay: Antagonist activity at recombinant human M3 receptor expressed in CHO-K1 cells incubated for 15 mins in presence of acetylcholine by aequorin assay; assay type: functional, cell-based
[13] = target: T2, Muscarinic acetylcholine receptor M2 (Homo sapiens); assay: Antagonist activity at M2 receptor (unknown origin) incubated for 1 hr in presence of acetylcholine by GTPgamma[35S] based Topcount scintillation counting method; assay type: functional
[14] = target: T5, Muscarinic acetylcholine receptor M1 (Homo sapiens); assay: Antagonist activity at recombinant human M1 receptor expressed in CHO-K1 cells incubated for 15 mins in presence of acetylcholine by aequorin assay; assay type: functional, cell-based
[15] = target: T5, Muscarinic acetylcholine receptor M1 (Homo sapiens); assay: Displacement of [3H]-Scopolamine from M1 receptor (unknown origin) by Topcount scintillation counting method
[16] = target: T4, Muscarinic acetylcholine receptor M5 (Homo sapiens); assay: Antagonist activity at recombinant human M5 receptor expressed in CHO-K1 cells incubated for 15 mins in presence of acetylcholine by aequorin assay; assay type: functional, cell-based
[17] = target: T1, Muscarinic acetylcholine receptor M4 (Homo sapiens); assay: Antagonist activity at M4 receptor (unknown origin) incubated for 1 hr in presence of oxotremorine by GTPgamma[35S] based Topcount scintillation counting method; assay type: functional
[18] = target: 5-hydroxytryptamine receptor 2A (Homo sapiens) (UniProt P28223); assay: Antagonist activity at recombinant human 5HT2AR expressed in CHO-K1 cells incubated for 60 mins in presence of alpha-Me-5HT by HTRF method; assay type: functional, cell-based
[19] = target: T1, Muscarinic acetylcholine receptor M4 (Homo sapiens); assay: Displacement of [3H]-Scopolamine from M4 receptor (unknown origin) by Topcount scintillation counting method
[20] = target: T2, Muscarinic acetylcholine receptor M2 (Homo sapiens); assay: Displacement of [3H]-Scopolamine from M2 receptor (unknown origin) by Topcount scintillation counting method
[21] = target: Muscarinic acetylcholine receptor M3 (Homo sapiens) (UniProt P20309); assay: Displacement of [3H]-Scopolamine from M3 receptor (unknown origin) by Topcount scintillation counting method
[22] = target: T3, 5-hydroxytryptamine receptor 2C (Homo sapiens); assay: Antagonist activity at recombinant human 5HT2CR expressed in CHO-K1 cells incubated for 60 mins in presence of alpha-Me-5HT by HTRF method; assay type: functional, cell-based
[23] = target: T4, Muscarinic acetylcholine receptor M5 (Homo sapiens); assay: Displacement of [3H]-Scopolamine from M5 receptor (unknown origin) by Topcount scintillation counting method

Q: For CN1[C@@H]2CCC[C@H]1[C@H]1[C@@H]2N1c1ccc2[nH]ccc2c1, which Activity (Neuron [1]) is on record?
A: inactive

Q: CN1[C@@H]2CC[C@H]1C[C@H](OC(=O)c1ccccc1)C2 was tested. Which Activity (Neuron [1]) did it give?
A: inactive

Q: With COc1ccc2[nH]c3c(c2c1)[C@H]1CC[C@@H](C3)N1C as the compound, how does the Activity (Neuron [1]) read?
A: inactive

Q: Which Activity (Neuron [1]) does the source give for COc1cccc(CCN2[C@@H]3CCC[C@H]2CC3)c1 here?
A: Active

Q: With COc1ccccc1CCN1[C@@H]2CCC[C@H]1CC2 as the compound, how does the Activity ([2]; filed as agonist) read?
A: Active

Q: And the Activity ([3]; filed as agonist)?
A: Active

Q: What about the Activity ([4]; filed as agonist) of the same compound?
A: Active

Q: And the Activity ([5]; filed as agonist)?
A: Active

Q: And the Activity ([6]; filed as agonist)?
A: Active

Q: What about the Activity ([7]; filed as agonist) of the same compound?
A: Active

Q: And the Activity ([8]; filed as agonist)?
A: Active

Q: What about the Activity ([9]; filed as agonist) of the same compound?
A: Active

Q: What about the Activity ([10]; filed as agonist) of the same compound?
A: Active

Q: How did the Activity (Neuron [1]) turn out when Fc1ccc(CCN2[C@@H]3CCC[C@H]2CC3)cc1 was run?
A: Active

Q: Which results are given for CN1[C@H]2CCC[C@@H]1[C@@H](c1ccccc1F)C2?
A: Activity (Neuron [1]): inactive; Activity (Neuron [11]): Toxic

Q: With COc1ccc(CN2[C@H]3CC(=O)C[C@@H]2[C@@H](O)C3)cc1 as the compound, how does the Activity [12] read?
A: inactive

Q: And the Activity [13]?
A: inactive

Q: And the Activity (Neuron [1])?
A: Active

Q: And the Activity [2]?
A: inactive

Q: What about the Activity [3] of the same compound?
A: inactive

Q: And the Activity [4]?
A: inactive

Q: What about the Activity [14] of the same compound?
A: inactive

Q: And the Activity [5]?
A: inactive

Q: What about the Activity [6] of the same compound?
A: inactive

Q: And the Activity [7]?
A: inactive

Q: And the Activity [8]?
A: inactive

Q: And the Activity [15]?
A: inactive

Q: What about the Activity [9] of the same compound?
A: inactive

Q: What about the Activity [16] of the same compound?
A: inactive

Q: And the Activity [17]?
A: inactive

Q: And the Activity [18]?
A: inactive

Q: What about the Activity [19] of the same compound?
A: inactive

Q: And the Activity [20]?
A: inactive

Q: What about the Activity [21] of the same compound?
A: inactive

Q: And the Activity [22]?
A: inactive

Q: And the Activity [10]?
A: inactive

Q: And the Activity [23]?
A: inactive

Q: CN1[C@@H]2CCC[C@H]1[C@H]1[C@@H]2N1c1cccnc1 was tested. Which Activity (Neuron [1]) did it give?
A: inactive

Q: CN1[C@H]2CCC[C@@H]1[C@@H](c1ccccc1)C2 was tested. Which Activity (Neuron [1]) did it give?
A: inactive

Q: How did the Activity (Neuron [1]) turn out when COc1ccc([C@H]2C[C@@H]3CCC[C@H]2N3C)cc1 was run?
A: inactive

Q: And the Activity (Neuron [11])?
A: Toxic

Q: COc1ccccc1[C@H]1C[C@@H]2CCC[C@H]1N2C was tested. Which Activity (Neuron [1]) did it give?
A: inactive

Q: For COc1ccc(CCN2[C@@H]3CCC[C@H]2CC3)cc1, which Activity (Neuron [1]) is on record?
A: inactive

Q: And the Activity (Neuron [11])?
A: Toxic

Q: For Fc1ccccc1CCN1[C@@H]2CCC[C@H]1CC2, which Activity (Neuron [1]) is on record?
A: Active
